Experimental data published in paper PMC10743895, “Synthesis of 1,3,4-Thiadiazole Derivatives and Their Anticancer Evaluation” (International Journal of Molecular Sciences, 2023).
pIC50: −log10 of the molar value. Where two headings read alike, the source gives them in different places.

Assays:
HUVEC normal cells = assay: MTS cell viability assay, HUVEC normal cells; assay type: cell-based, human; settings: Homo sapiens, HUVEC
Description: (§1) To determine the optimal working concentration, dose-effect curves were made for each compound in the range of concentrations between 6.25 and 400 μM.
(§2) LoVo (human colorectal adenocarcinoma) human cancer cell line and HUVEC normal cells were purchased from American Type Culture Collection (ATCC). The MCF-7 human breast adenocarcinoma cell line was provided from European Collection of Authenticated Cell Cultures (ECACC). HUVEC normal cells, isolated from the vascular endothelium of an umbilical cord, were used as a reference. Adherent cells were maintained in culture in Dulbecco’s modified Eagle medium/nutrient mixture F-12 (DMEM:F12) with 2 mM of L-glutamine, 10% fetal bovine serum, 100 units/mL of penicillin and 100 μg/mL of streptomycin, and incubated at 37 °C in a 5% CO2-humidified atmosphere. After 24 h, adherent cells were treated with different concentrations of the compounds for different periods of time. Cis-Pt and DOX, conventional oncology drugs used in cancer treatments, can be used as a positive control of the experiments. […] Then, cells were detached with a nonenzymatic solution of phosphate-buffered saline (PBS)/1 mM EDTA and washed twice in PBS.
(§3) The study utilized a colorimetric assay based on MTS (chemically known as 3-(4,5-dimethylthiazol-2-yl)-5-(3-carboxymethoxyphenyl)-2-(4-sulfophenyl)-2H-tetrazolium) and called CellTiter 96 Aqueous One Solution Cell proliferation Assay (Promega, Madison, WI, USA) in order to measure cell viability. The assay was performed in triplicate in 96-well microtiter plates with a flat bottom (Falcon). A number of 1 × 10^4 cells/well were cultured in 100 μL for 24 h, culture supernatants were discarded, and then cells were treated for 24 and 48 h with increasing concentrations of the tested compound. After the end of the incubation time, 20 μL of the reagent containing MTS and PES (phenazine ethosulfate) was added in each well. Plates were incubated for 4 h at 37 °C, with mild agitation every 15 min. The reduction in the tetrazolium compound to formazan was spectrophotometrically measured at λ = 492 nm using a Dynex plate reader (DYNEX Technologies MRS, Chantilly, VA, USA). The percentage of viability compared to untreated cells (considered 100% viable) was calculated with the formula:(1) Cell viability (%)=Absorbance treated cells−Absorbance culture medium/Absorbance untreated cells−Absorbance culture medium×100
(§4) The cell viability compared was calculated and data were expressed as a mean ± standard deviation (SD) of the experiments and obtained in triplicate (n = 3).

MCF-7 cells [1] = assay: MTS cell viability assay, MCF-7 cells; assay type: cell-based, human; settings: Homo sapiens
Description: as §1, §2, §3, §4

[2] = Daphnia magna toxicity assay; assay type: in vivo; settings: Daphnia magna, in vivo
Description: (§5) The Daphnia magna bioassay results are presented in Table 3 as the maximum average percentage of lethality (L%) registered for each compound and the median lethal concentration (LC50) if the values permitted its calculation.
(§6) Daphnia magna Straus is parthenogenetically maintained at ‘Carol Davila’ University’s Department of Pharmaceutical Botany and Cell Biology. The culture was consistently maintained at a temperature of 25 °C, with a 16-h light and 8-h dark photoperiod. To ensure consistency, young daphnids were carefully chosen based on their size and kept in an artificial medium for 24 h prior to the assessment. The bioassay involved 10 daphnids per replicate, using tissue culture plates with 12 wells from Greiner Bio-One. The experimental procedure followed the protocol described in previous studies.
(§7) Each determination was carried out in duplicate.

Daphnia magna = Daphnia magna toxicity assay; assay type: in vivo; settings: up to 200 µM
Description: as §5, §6, §7

LoVo cells [3] = assay: Apoptosis assay (Annexin V-FITC/PI flow cytometry), LoVo; assay type: cell-based, human
Description: (§8) Two reference concentrations, 5 μM and 50 μM, and two distinct treatment durations, 24 and 48 h, were employed to assess the influence of the test compounds on apoptosis in both normal and tumor cells. […] HUVEC cells were exposed to both drugs.
(§9) The apoptosis assay was performed according to the manufacturer’s instructions using the Annexin V-FITC kit (BD Biosciences, San Jose, CA, USA). Cells untreated and treated with the experimental compound were suspended in a cold binding buffer. The percentages of apoptotic cells were determined by double staining with Annexin V-FITC/PI. In each tube was added 400 μL of Annexin V binding buffer and the 5000 cells/sample for 15 min in the dark at room temperature. The cells were analyzed using a FACSCantoII flow-cytometer (Becton Dickinson—BD, La Jolla, CA, USA). The analysis was performed using DIVA 6.2 software to discriminate viable cells (FITC-PI-) from necrotic cells (FITC + PI+), and early apoptosis (FITC + PI) from late apoptosis.

LoVo cells [4] = assay: MTS cell viability assay, LoVo cells; assay type: cell-based, human; settings: Homo sapiens, LoVo
Description: as §1, §2, §3, §4

MCF-7 cells [5] = assay: Apoptosis assay (Annexin V-FITC/PI flow cytometry), MCF-7; assay type: cell-based, human
Description: as §8, §9

HUVEC cells = assay: Apoptosis assay (Annexin V-FITC/PI flow cytometry), HUVEC; assay type: cell-based, human
Description: as §8, §9

[6] = read-out: IC50 (48 h) HUVEC, 48 h exposure
[7] = 24 h exposure, read-out: IC50 (24 h) HUVEC
[8] = MCF7, read-out: IC50 (48 h) MCF-7, 48 h exposure
[9] = MCF7, 24 h exposure, read-out: IC50 (24 h) MCF-7
[10] = read-out: IC50 (48 h) LoVo, 48 h exposure
[11] = 24 h exposure, read-out: IC50 (24 h) LoVo

Compound | pIC50 (HUVEC normal cells; [6]) | pIC50 (HUVEC normal cells; [7]) | pIC50 (MCF-7 cells [1]; [8]) | pIC50 (MCF-7 cells [1]; [9]) | LC50 at 48 h [2] [µM] | Maximum Average L% (lethality) (Daphnia magna; 24 h) [%] | Maximum Average L% (lethality) (Daphnia magna; 48 h) [%] | Total Apoptosis (%) 24 h LoVo (LoVo cells [3]; 5 μM) [%] | Total Apoptosis (%) 48 h LoVo (LoVo cells [3]; 5 μM) [%] | Total Apoptosis (%) 24 h LoVo (LoVo cells [3]; 50 μM) [%] | Total Apoptosis (%) 48 h LoVo (LoVo cells [3]; 50 μM) [%] | pIC50 (LoVo cells [4]; [10]) | pIC50 (LoVo cells [4]; [11]) | Total Apoptosis (%) 24 h MCF-7 (MCF-7 cells [5]; 5 μM) [%] | Total Apoptosis (%) 48 h MCF-7 (MCF-7 cells [5]; 5 μM) [%] | Total Apoptosis (%) 24 h MCF-7 (MCF-7 cells [5]; 50 μM) [%] | Total Apoptosis (%) 24 h HUVEC (HUVEC cells; 5 μM) [%] | Total Apoptosis (%) 48 h HUVEC (HUVEC cells; 5 μM) [%] | Total Apoptosis (%) 24 h HUVEC (HUVEC cells; 50 μM) [%] | Total Apoptosis (%) 48 h HUVEC (HUVEC cells; 50 μM) [%] | other results
Cc1ccc(-c2nnc(N)s2)cc1 [2b, 5-(4-Methylphenyl)-1,3,4-thiadiazol-2-amine] | 4.15 | < 3.40 | < 3.40 | < 3.40 | 144 | 10 | 55 | 6.9 | 14.0 | 6.3 | 12.3 | 3.90 | 3.87 | 8.0 | 16.7 | 8.4 | 16.7 | 15.7 | 13.6 | 16.6 | Total Apoptosis (%) 48 h MCF-7 (MCF-7 cells [5]; 50 μM): 25.4%
O=C(Nc1nnc(-c2ccccc2)s1)c1ccccc1CSc1ccccc1 [3c, 2-Phenylthiomethyl-N-(5-phenyl-1,3,4-thiadiazol-2-yl)benzamide] | < 3.40 | < 3.40 | < 3.40 | < 3.40 | 188 | 10 | 55 | 14.8 | 27.6 | 11.2 | 24.5 | < 3.40 | < 3.40 | 16.4 | 39.3 | 14.3 | 15.5 | 13.5 | 16.9 | 14.7 | Total Apoptosis (%) 48 h MCF-7 (MCF-7 cells [5]; 50 μM): 37.3%
CC(=O)Nc1nnc(-c2ccccc2)s1 [3a, N-(5-Phenyl-1,3,4-thiadiazol-2-yl)acetamide] | < 3.40 | < 3.40 | < 3.40 | < 3.40 | < 6.25 | 95 | 100 | 14.9 | 20.1 | 14.5 | 22.3 | < 3.40 | < 3.40 | 17.6 | 24.9 | 17.9 | 26.6 | 18.2 | 22.6 | 20.1 | LC50 at 24 h [2]: < 6.25 µM
Nc1nnc(-c2ccccc2CSc2ccccc2)s1 [2f, 5-[2-(Phenylthiomethyl)phenyl]-1,3,4-thiadiazol-2-amine] | < 3.40 | < 3.40 | < 3.40 | < 3.40 | – | 5 | 10 | 14.9 | 27.0 | 8.2 | 17.4 | 4.09 | < 3.40 | 22.0 | 44.0 | 12.6 | 19.9 | 15.9 | 18.6 | 14.6 | Total Apoptosis (%) 48 h MCF-7 (MCF-7 cells [5]; 50 μM): 45.0%
COc1ccc(OC)c(-c2nnc(N)s2)c1 [2d, 5-(2,5-Dimethoxyphenyl)-1,3,4-thiadiazol-2-amine] | 4.02 | < 3.40 | 3.92 | 3.81 | 50.7 | 40 | 95 | 13.5 | 19.3 | 12.0 | 17.9 | 4.54 | 4.27 | 14.6 | 37.6 | 11.8 | 28.4 | 14.4 | 19.8 | 16.8 | LC50 at 24 h [2]: 241 µM; Total Apoptosis (%) 48 h MCF-7 (MCF-7 cells [5]; 50 μM): 34.9%
